From the supplement of paper PMC7801607

System: Plasmodium falciparum Dd2 asexual blood stage

Row | SMILES | IC50
1 | CCOC(=O)N1CCN(c2ccc(Cl)cc2)CC1 | > 5 µM
2 | CCOc1ccc(/C=N/NC(=O)C2CC2c2ccc(C(C)(C)C)cc2)cc1OCC (stereo not drawn) | > 5 µM
3 | CCNC(=O)Nc1cc2c(-c3ccnc(C)c3)ccc(CNC(=O)OC)c2cn1 | > 5 µM
4 | O=C(NNC(=S)Nc1ccc(Cl)cc1)c1ccncc1 | > 5 µM
5 | NNC(=O)c1ccncc1 | > 5 µM
6 | COc1ccc(NS(=O)(=O)c2ccc(Cl)s2)cn1 | > 5 µM
7 | C[C@H](Cn1cnc2c(N)ncnc21)OCP(=O)(O)O | > 5 µM
8 | FC(F)(F)Oc1ccc(Nc2ccc3cccc(Cl)c3n2)cc1 | > 5 µM
9 | COc1c(NC(=O)[C@H]2CC[C@@H](COc3ccc([N+](=O)[O-])cc3)CC2)c(F)cc2c(=O)c(C(=O)O)cn(C3CC3)c12 | > 5 µM
10 | Cc1ccc(Oc2ccccc2-c2csc(NC3=NCCCN3)n2)c(C)c1 | > 5 µM
11 | Nc1nc(O)c2ncn(COC(CO)CO)c2n1 | > 5 µM
12 | C=C(C)[C@@H]1CC[C@]2(C(=O)O)CC[C@]3(C)[C@H](CC[C@@H]4[C@@]5(C)CC[C@H](O)C(C)(C)[C@@H]5CC[C@]43C)[C@@H]12 | > 5 µM
13 | O=C(O)c1sccc1S(=O)(=O)n1ccc2cc(Br)ccc21 | > 5 µM
14 | COc1ccc2sc3c(c2c1)NC(C)CNC3=O (stereo not drawn) | > 5 µM
15 | O=C(N[C@H](Cc1cccc2ccccc12)C(=O)NCCc1c[nH]cn1)C1Cc2ccccc2C1 | > 5 µM
16 | COc1ccccc1CN[C@H]1C2CCN(CC2)[C@H]1C(c1ccccc1)c1ccccc1 | 2.23 µM
17 | CN(C)CC(=O)Nc1ccc2[nH]c(=O)c3ccccc3c2c1 | > 5 µM
18 | N#C/C(=C1/SC[C@H](c2ccc(Cl)cc2Cl)S1)n1ccnc1 | > 5 µM
19 | CC(C)(C)NC(=O)N[C@H](C(=O)N1C[C@H]2[C@@H]([C@H]1C(=O)NC(CC1CCC1)C(=O)C(N)=O)C2(C)C)C(C)(C)C (stereo partly drawn) | > 5 µM
20 | CCCCCCC1c2ccc(O)cc2Oc2cc(O)ccc21 | > 5 µM
21 | O=C(NC1CCCc2c1[nH]c1ccc(Cl)cc21)c1ccccn1 (stereo not drawn) | > 5 µM
22 | [N-]=[N+]=N[C@H]1C[C@H](n2ccc(=O)[nH]c2=O)O[C@@H]1CO | > 5 µM
23 | CN1c2ccc(Cl)cc2N(c2ccccc2)C(=O)c2cn(Cc3ccc(CN4CCOCC4)cc3)nc21 | > 5 µM

Row | SMILES | IC50
24 | NC1(C(=O)O)CCP(=O)(O)CC1 (stereo not drawn) | > 5 µM
25 | C[C@H](NC(=O)C(=O)Nc1ccccc1C(C)(C)C)C(=O)N[C@@H](CC(=O)O)C(=O)COc1c(F)c(F)cc(F)c1F | > 5 µM
26 | O=c1nc(N2CCN(CC3CCCCC3)CC2)sc2c([N+](=O)[O-])cc(C(F)(F)F)cc12 | > 5 µM
27 | CC(C)CCN1C(=O)C(C2=NS(=O)(=O)c3cc(NS(C)(=O)=O)ccc3N2)=C(O)[C@@H]2[C@H]3CC[C@H](C3)[C@@H]21 | > 5 µM
28 | O=C(NCc1ncc(C(F)(F)F)cc1Cl)c1c(Cl)cccc1Cl | > 5 µM
29 | CC(C)(C)c1cc(CCC(=O)N2CCC2)cc(C(C)(C)C)c1O | > 5 µM
30 | OB1OCc2c1ccc(Cl)c2F | > 5 µM
31 | C[C@H](NC(CC(=O)c1ccccc1C(F)(F)F)C(=O)O)c1ccccc1 (stereo partly drawn) | > 5 µM
32 | CCCCc1ccc(-c2nc(C)c(C(=O)OC)s2)cc1 | > 5 µM
33 | Nc1nc2c(Cc3cccnc3)c[nH]c2c(=O)[nH]1 | > 5 µM
34 | O=C(NC12CC3CC(CC(C3)C1)C2)c1cc2ccccc2[nH]1 | > 5 µM
35 | O=C(NN1C(=O)[C@@H]2C3C=CC([C@H]4C[C@@H]34)[C@@H]2C1=O)c1ccc(C(F)(F)F)cc1 | > 5 µM
36 | CCc1cc(O)c(Oc2cccnc2N)cc1F | > 5 µM
37 | NC(=O)[C@@H]1CC[C@@H]2CN1C(=O)N2OS(=O)(=O)O | > 5 µM
38 | CCc1cc(Nc2cc(=O)n(CCN3CCN(C(=O)c4ccccc4)CC3)c(=O)[nH]2)ccc1C | > 5 µM
39 | CCOC(=O)/C=C/[C@H](C[C@@H]1CCNC1=O)NC(=O)[C@H](CC)n1cccc(NC(=O)c2cc(C)on2)c1=O | > 5 µM
40 | CCc1ccccc1OCCN1CCCCCC1 | > 5 µM
41 | Cc1ccc(C)c(OCCCCCCN2C[C@H](O)[C@@H](O)[C@H](O)[C@H]2CO)c1 | > 5 µM
42 | CCC(C)n1ncn(-c2ccc(N3CCN(c4ccc(OCC5COC(Cn6cncn6)(c6ccc(Cl)cc6Cl)O5)cc4)CC3)cc2)c1=O (stereo not drawn) | 4.35 µM
43 | CC(C)N(c1cc(-c2ccccc2)sc1C(=O)O)C(=O)[C@H]1CC[C@H](C)CC1 | > 5 µM
44 | COc1cc(NC(=O)CN2C(=O)NC(c3ccccc3)(c3ccccc3)C2=O)cc(OC)c1 | > 5 µM
45 | CC(=O)Oc1ccccc1C(=O)Nc1ncc([N+](=O)[O-])s1 | > 5 µM

The next lines start with the values.

Row | IC50 | SMILES
46 | > 5 µM | Nc1nc(O)c(Br)c(-c2ccccc2)n1
47 | > 5 µM | COc1ccc(SCC(=O)N2c3ccccc3Sc3ccccc32)cc1
48 | > 5 µM | CC(=O)Nc1cc(NS(=O)(=O)c2ccc(Cl)cc2)cc2c(Cl)n[nH]c12
49 | > 5 µM | COc1ccc2c(c1)cc(CNC(=O)c1cc3ccccc3o1)n2CC(=O)O
50 | > 5 µM | Nc1nc(N)c2c(Sc3ccccc3)cccc2n1
51 | > 5 µM | NC(=O)c1[nH]c2ccc(S(N)(=O)=O)cc2c1-c1ccccc1
52 | > 5 µM | Nc1cccc(-c2nc(N)nc(NC3Cc4ccccc4C3)n2)c1
53 | > 5 µM | O=C(CCc1ccc2c(c1)OCO2)NCc1ccc(-c2ccccc2F)cc1
54 | > 5 µM | O=S(=O)(Nc1ccc(O)cc1)c1cccc2cccnc12
55 | > 5 µM | Cc1c[nH]c(=O)nc1NCc1ccccc1
56 | > 5 µM | O=C(Nc1ccc(-c2ccccc2)cc1)C1=C(O)C(Cc2ccccc2)OC1=O (stereo not drawn)
57 | > 5 µM | CC(C)(C)c1ccc(OCCn2nc(C(=O)O)c3ccccc3c2=O)cc1
58 | > 5 µM | COc1ccc(NC(=O)c2cc3ccccn3n2)cc1
59 | > 5 µM | Fc1ccc(-n2cc(Cn3c(-c4cccc(F)c4)nc4ccccc43)nn2)cc1
60 | > 5 µM | Cc1nc(N(C)C(=O)Cc2ccc(-c3ccccn3)cc2)sc1S(N)(=O)=O
61 | > 5 µM | O=C(NCc1ccccc1Cl)c1cnc2ccccc2n1
62 | > 5 µM | CCCCc1ccc(-c2cc(C(=O)O)cc(-c3ccc(Cl)cc3)n2)cc1
63 | > 5 µM | Cc1onc(-c2ccccc2)c1-c1ccc(S(N)(=O)=O)cc1
64 | > 5 µM | Cc1nc(-c2ccc(C3N(C)c4ccc(F)cc4C(=O)N3c3ccccc3)s2)cs1 (stereo not drawn)
65 | > 5 µM | CCc1nc2ccccn2c1C(=O)NCc1ccccc1
66 | > 5 µM | Cc1onc(-c2ccccc2Cl)c1C(=O)N[C@@H]1C(=O)N2[C@@H]1SC(C)(C)[C@@H]2C(=O)O
67 | 4.1 µM | Nc1nc(-c2ccccc2)nc2[nH]nc(Nc3ccc(C(F)(F)F)cc3)c12
68 | > 5 µM | Cc1cc(NS(=O)(=O)c2ccc(-c3ccc(F)cc3F)cc2)no1
69 | > 5 µM | C/C(=N\NC(=O)C1CC1c1ccccc1)c1ccc(NC(=O)c2ccco2)cc1 (stereo not drawn)
70 | > 5 µM | C[C@@H](NC(=O)c1ccccc1-c1ccccc1)B(O)O
71 | > 5 µM | Oc1ccc(NCc2ccccc2OCc2ccccc2)cc1
72 | > 5 µM | O=S(=O)(Nc1cccc2cccnc12)c1ccccc1
73 | > 5 µM | N#Cc1cc([N+](=O)[O-])ccc1Oc1ccccc1Cl
